Laboratory results taken from patent publication US9018215B2, “Heteroaromatic compounds, medicaments containing said compounds, use thereof and processes for the preparation thereof” (Boehringer Ingelheim International GmbH, priority 2013, dated 2015).

Target: T1, ENaC (Epithelial Sodium Channel) (Mus musculus, UniProt Q61180+Q9WU38+Q9WU39)
T1 construct: Mouse kidney M-1 cells were cultivated in DMEM containing 5% FCS and 5 μM dexamethasone; endogenous in cells; host or cells: mouse kidney M-1 cells
T1 sequence (Q61180 1-699): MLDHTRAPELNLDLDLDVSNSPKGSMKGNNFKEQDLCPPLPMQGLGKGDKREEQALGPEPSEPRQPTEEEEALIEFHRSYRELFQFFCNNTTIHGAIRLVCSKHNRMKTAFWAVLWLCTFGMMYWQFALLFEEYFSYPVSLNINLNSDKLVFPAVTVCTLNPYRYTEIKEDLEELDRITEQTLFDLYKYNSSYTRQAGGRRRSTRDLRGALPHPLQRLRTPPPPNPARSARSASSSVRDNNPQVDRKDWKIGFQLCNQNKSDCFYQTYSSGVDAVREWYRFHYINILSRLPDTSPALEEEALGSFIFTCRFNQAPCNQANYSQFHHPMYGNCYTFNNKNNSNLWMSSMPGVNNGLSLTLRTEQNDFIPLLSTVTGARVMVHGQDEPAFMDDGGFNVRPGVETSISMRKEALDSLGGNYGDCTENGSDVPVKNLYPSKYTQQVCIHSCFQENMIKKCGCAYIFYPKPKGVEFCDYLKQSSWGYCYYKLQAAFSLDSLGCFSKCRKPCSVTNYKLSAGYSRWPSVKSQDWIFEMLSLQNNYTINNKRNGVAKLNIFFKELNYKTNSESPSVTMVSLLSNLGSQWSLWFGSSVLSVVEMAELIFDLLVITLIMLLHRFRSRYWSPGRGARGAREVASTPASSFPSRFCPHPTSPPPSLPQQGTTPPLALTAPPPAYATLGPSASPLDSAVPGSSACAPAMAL
T1 sequence (Q9WU38 1-638): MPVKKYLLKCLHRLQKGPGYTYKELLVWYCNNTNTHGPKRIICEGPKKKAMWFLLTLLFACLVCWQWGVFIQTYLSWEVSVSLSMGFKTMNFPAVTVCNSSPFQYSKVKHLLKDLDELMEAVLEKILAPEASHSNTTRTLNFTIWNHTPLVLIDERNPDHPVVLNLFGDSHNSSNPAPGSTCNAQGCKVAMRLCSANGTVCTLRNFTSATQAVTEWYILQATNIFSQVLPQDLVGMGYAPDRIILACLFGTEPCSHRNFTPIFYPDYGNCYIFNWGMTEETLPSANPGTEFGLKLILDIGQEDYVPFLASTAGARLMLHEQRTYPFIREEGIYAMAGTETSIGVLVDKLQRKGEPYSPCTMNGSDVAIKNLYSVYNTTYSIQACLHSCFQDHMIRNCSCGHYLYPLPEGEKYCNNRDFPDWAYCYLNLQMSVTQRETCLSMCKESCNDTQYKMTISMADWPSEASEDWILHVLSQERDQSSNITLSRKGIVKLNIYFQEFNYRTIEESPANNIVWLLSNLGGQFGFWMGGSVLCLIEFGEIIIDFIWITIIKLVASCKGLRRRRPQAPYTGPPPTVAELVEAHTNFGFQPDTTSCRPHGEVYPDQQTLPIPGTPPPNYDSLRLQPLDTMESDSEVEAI
T1 sequence (Q9WU39 1-655): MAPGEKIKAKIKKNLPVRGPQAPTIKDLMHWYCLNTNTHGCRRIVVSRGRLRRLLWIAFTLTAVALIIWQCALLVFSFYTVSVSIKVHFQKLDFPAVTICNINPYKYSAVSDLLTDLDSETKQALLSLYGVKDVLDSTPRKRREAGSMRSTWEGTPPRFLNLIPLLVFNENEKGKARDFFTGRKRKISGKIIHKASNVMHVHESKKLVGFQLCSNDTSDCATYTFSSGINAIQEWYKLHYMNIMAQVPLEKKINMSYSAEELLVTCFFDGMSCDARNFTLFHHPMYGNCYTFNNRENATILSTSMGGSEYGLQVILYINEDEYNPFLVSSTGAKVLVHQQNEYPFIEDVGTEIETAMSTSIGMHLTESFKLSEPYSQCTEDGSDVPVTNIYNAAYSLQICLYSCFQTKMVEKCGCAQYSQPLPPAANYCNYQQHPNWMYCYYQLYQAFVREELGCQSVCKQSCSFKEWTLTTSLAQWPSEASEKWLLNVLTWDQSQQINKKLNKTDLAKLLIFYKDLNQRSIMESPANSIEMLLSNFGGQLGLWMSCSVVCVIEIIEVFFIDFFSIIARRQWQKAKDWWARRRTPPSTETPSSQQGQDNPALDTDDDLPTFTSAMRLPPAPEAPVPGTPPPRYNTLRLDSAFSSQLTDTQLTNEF
Experiment: Ussing chamber assay: short circuit current (I_sc) in M-1 cells, inhibition of the amiloride sensitive I_SC
Assay type: cell-based
Conditions: Mouse kidney M-1 cells on transwell filters, compounds added to the apical solution, 37° C., voltage-clamp mode
Experimental: Mouse kidney M-1 cells were cultivated in DMEM containing 5% FCS and 5 μM dexamethasone for 10 to 12 days on polyester transwell filters. Filters were inserted into a teflon-coated well-plate which fit into the in-house ussing chamber system. Prior to measurement the medium of M-1 cells was replaced with Caco-2 transport buffer (Invitrogen, Germany). During measurements, the Ussing chamber temperature was kept at 37° C. Short circuit currents (I_sc) were measured in the voltage-clamp mode using an in-house built amplifier (Boehringer Ingelheim, Biberach) with the software package Lab View for data acquisition and analysis. The transepithelial electrical resistance (TEER) was determined by the application of voltage steps of ±5 mV every 5 sec. Compounds were administered at a final concentration of 3 μM or at increasing concentrations (1-3-10 μM) to the apical solution. At the end of each experiment the amiloride sensitive I_SC was measured by adding 3 μM amiloride to the apical compartment. Results are expressed as inhibition in percent of the amiloride effect or as IC50. With the example compounds given above, the following IC50 values were determined in the Ussing Chamber assay: […]

IC50 [nM]	SMILES
4	COC(=O)c1ccc2nc(CN3CCC(NC(N)=NC(=O)c4nc(Cl)c(N)nc4N)CC3)cn2c1 [Example 1.7]
16	N/C(=N\C(=O)c1nc(Br)c(N)nc1N)NC1CCN(Cc2ccnc(C(=O)O)c2)CC1 [Example 4.1]
5	NC(=NC(=O)c1nc(Cl)c(N)nc1N)NC1CCN(Cc2nc3ccccc3[nH]2)CC1 [Example 1.16]
3	COC(=O)c1cc(CN2CCC(N/C(N)=N/C(=O)c3nc(Cl)c(N)nc3N)CC2)ccn1 [Example 1.1]
3	NC(=NC(=O)c1nc(Cl)c(N)nc1N)NC1CCN(Cc2ccc(CCc3cccnc3)nc2)CC1 [Example 1.4]
12	N/C(=N\C(=O)c1nc(Cl)c(N)nc1N)NC1CCN(Cc2cncc(-c3cn(CCOCCOCCOCCO)nn3)c2)CC1 [Example 2.2]
31	N/C(=N\C(=O)c1nc(Cl)c(N)nc1N)NC1CCN(Cc2ccc(C(=O)O)s2)CC1 [Example 3.2]
15	NC(=NC(=O)c1nc(Cl)c(N)nc1N)NC1CCN(Cc2ccccn2)CC1 [Example 1.5]
9	NC(=NC(=O)c1nc(Cl)c(N)nc1N)NC1CCN(Cc2ccc(=O)n(Cc3cccnc3)c2)CC1 [Example 1.6]
3	NC(=NC(=O)c1nc(Cl)c(N)nc1N)NC1CCN(Cc2cn3cc(I)ccc3n2)CC1 [Example 1.13]
4	NC(=NC(=O)c1nc(Cl)c(N)nc1N)NC1CCN(Cc2ccnc(C(=O)NCCOCCO)c2)CC1 [Example 1.14]
4	COC(=O)c1cc(CN2CCC(N/C(N)=N/C(=O)c3nc(Br)c(N)nc3N)CC2)ccn1 [Example 1.19]
6	N/C(=N\C(=O)c1nc(Cl)c(N)nc1N)NC1CCN(Cc2ccc(=O)n(Cc3cn(Cc4ccccn4)nn3)c2)CC1 [Example 2.1]
4	C#Cc1cncc(CN2CCC(NC(N)=NC(=O)c3nc(Cl)c(N)nc3N)CC2)c1 [Example 1.12]
10	NC(=NC(=O)c1nc(Cl)c(N)nc1N)NC1CCN(Cc2ccnc(C(=O)N(CCO)CCO)c2)CC1 [Example 1.2]
6	NC(=NC(=O)c1nc(Cl)c(N)nc1N)NC1CCN(Cc2cn3ccccc3n2)CC1 [Example 1.15]
21	N/C(=N\C(=O)c1nc(Cl)c(N)nc1N)NC1CCN(Cc2ccnc(C(=O)O)c2)CC1 [Example 3.1]
4	NC(=NC(=O)c1nc(Cl)c(N)nc1N)NC1CCN(Cc2nc3ccccc3c(=O)[nH]2)CC1 [Example 1.10]
5	NC(=NC(=O)c1nc(Cl)c(N)nc1N)NC1CCN(Cc2ccc(Br)nc2)CC1 [Example 1.17]
17	NC(=NC(=O)c1nc(Cl)c(N)nc1N)NC1CCN(Cc2cscn2)CC1 [Example 1.9]
11	NC(=NC(=O)c1nc(Cl)c(N)nc1N)NC1CCN(Cc2cn3cc(C(=O)NCCO)ccc3n2)CC1 [Example 1.8]
18	NC(=NC(=O)c1nc(Cl)c(N)nc1N)NC1CCN(Cc2cn3cc(C(=O)NCCOCCO)ccc3n2)CC1 [Example 1.3]
3	COC(=O)c1ccc(CN2CCC(NC(N)=NC(=O)c3nc(Cl)c(N)nc3N)CC2)s1 [Example 1.11]
